Results reported in patent publication US4968690A (priority 1989, dated 1990).
pIC50, pKi: −log10 of the molar value. Read-outs that look alike come from different tables or passages of the source.

Columns and labels:
[1] = tested on: Dengue virus Type II, strain 16681; assay: Antiviral effect, Dengue Type II in BHK21 cells (plaque reduction); type: cell-based; details: for inhibition at 5 µg/mL / inhibition at 25 µg/mL / inhibition at 50 µg/mL: Dengue virus, BHK-21, BHK21 cells, read-out: % PFU Reduction, Dengue Type II; for inhibition at 5 µg/mL: 5 μg/ml; for inhibition at 25 µg/mL: 25 μg/ml; for inhibition at 50 µg/mL: 50 μg/ml
viruses = assay: General antiviral evaluation; type: cell-based; details: compared with CPE-C
[2] = tested on: cells used to support virus growth; assay: Toxicity to cells used to support virus growth; type: cell-based; details: listed concentrations 50, 25, 5 μg/ml
Source text: ^(a) Concentrations listed were nontoxic to cells used to support
^(a) Concentrations listed were noncytotoxic to cells used to support

[3] = background; cited from earlier work
[4] = tested on: enzyme which hydrolyzes S-adenosyl-L-homocysteine (AdoHcy); details: background; cited from earlier work
[5] = background; cited from earlier work; remark: listed apart in the source
H.Ep.-2 cells = details: background; cited from earlier work
L1210 cells = details: background; cited from earlier work
L1210 leukemia = details: background; cited from earlier work
quiescent normal cells = details: subtoxic concentrations; cited from earlier work
malignant cell lines = details: subtoxic concentrations; cited from earlier work
adenosine deaminase = details: background; cited from earlier work
HL-60 cells [6] = assay: Cell viability / acute cytotoxicity in HL-60 cells; type: cell-based, human
Source text: This reduced toxicity provides excellent selectivity and potency as an antiviral agent.

[7] = tested on: Polio Type III virus (Sabin oral vaccine strain); assay: microbe, parasite or virus in culture; type: cell-based
[8] = tested on: Herpes Simplex Type II virus, strain 28382; assay: Antiviral effect, Herpes Simplex II in mink lung cells (plaque reduction); type: cell-based; details: for inhibition at 5 µg/mL: 5 μg/ml; for inhibition at 25 µg/mL: 25 μg/ml
Source text: ^(b) Herpes Simplex Type II virus, strain 28382 in mink lung cells.
^(d) Plaque forming units (PFU) is a measure of the infectivity of th
^(e) Multiplicity of infection (MOI) 2.0 PFU/ml.

[9] = tested on: Adenovirus Type 7, strain V1012; assay: Antiviral effect, Adenovirus 7 in Hep2 cells (plaque reduction); type: cell-based
Source text: ^(c) Adenovirus Type 7, strain V1012 in Hep2 cells.

HL-60 cells [10] = assay: Growth inhibition and differentiation of HL-60 cells (nitroblue tetrazolium reduction); type: cell-based, human
Source text: (§1) The effect of this compound on differentiation, and nucleic acid and nucleotide biosynthesis were examined in the malignant human promyelocytic leukemia cell line, HL-60. […] During this exposure interval, pronounced differentiation to mature myeloid cells occurred wherein 95% of the cell population reduced nitroblue tetrazolium four days after exposure to 10^-7 M CPE-C.

[11] = tested on: DNA synthesis / RNA synthesis in HL-60 cells; assay: DNA and RNA synthesis in HL-60 cells; type: cell-based, human
Source text: as §1

c-myc mRNA = c-myc mRNA levels in HL-60 cells; type: cell-based, human; details: preceding induction of mature myeloid cells
Source text: as §1

[12] = tested on: CTP, UTP, ATP, GTP levels in HL-60 cells; assay: Nucleotide (CTP, UTP, ATP, GTP) levels in HL-60 cells; type: cell-based, human
Source text: as §1

L1210 tumor cells = assay: Cytotoxicity against L1210 tumor cells in culture; type: cell-based; details: Mus musculus, 48 hour exposure
[13] = tested on: Dengue virus Type II, strain 16681; assay: Antiviral effect, Dengue II in Vero E6 cells (plaque reduction); type: cell-based; details: Vero C1008, read-out: % PFU Reduction, Dengue II
[14] = tested on: Coxsackie A9 virus, strain 1861; assay: Antiviral effect, Coxsackie A9 in Viro E6 cells (plaque reduction); type: cell-based; details: read-out: % PFU Reduction, Coxsackie 9A
[15] = target: hamster liver adenosine-homocystine (AdoHyc) hydrolase (Mesocricetus auratus, UniProt A0A1U7RAJ1); assay: Inhibition of hamster liver AdoHcy hydrolase
[16] = read-out: % PFU Reduction, Polio Type III
[17] = mink lung cells, first value of cell, presumably MOI 2.0 PFU/ml, read-out: % PFU Reduction, Herpes Simplex II (first value)
[18] = mink lung cells, second value of cell, read-out: % PFU Reduction, Herpes Simplex II (second value)
[19] = read-out: % PFU Reduction, Polio III

Compound: O=c1ccn([C@@H]2C=C(CO)[C@@H](O)[C@H]2O)c(=O)[nH]1 [CPE-U]
- antiviral activity (in words), Dengue Type II [1]: good activity
- inhibition at 5 µg/mL [1]: 2%
- inhibition at 25 µg/mL [1]: 91%
- inhibition at 50 µg/mL [1]: 93%
- general antiviral activity (in words) (viruses): less effective as a general antiviral agent
- toxicity to cells used to support virus growth [2]: noncytotoxic

Compound: Nc1nccc2c1ncn2[C@@H]1O[C@H](CO)[C@@H](O)[C@H]1O [3-deazaadenosine]
- phosphorylation and deamination [3]: resistance towards phosphorylation and deamination

Compound: 3-deazaaristeromycin
- inhibition of AdoHcy-hydrolyzing enzyme (in words) [4]: very potent and specific inhibitor
- phosphorylation and deamination [3]: resistance towards phosphorylation and deamination
- side effects [5]: devoid of some of the undesirable side effects

Compound: Nc1ncnc2c1ncn2[C@@H]1C[C@H](CO)[C@@H](O)[C@H]1O [C-Ado]
- cytotoxicity to H.Ep.-2 cells in culture (H.Ep.-2 cells): highly cytotoxic
- cytotoxicity to L1210 cells in culture (L1210 cells): highly cytotoxic
- activity in in vivo mouse L1210 model (L1210 leukemia): inactivity
- cell proliferation of quiescent normal cells (quiescent normal cells): induced cell proliferation
- growth in malignant cell lines (malignant cell lines): inhibited growth
- affinity for adenosine deaminase relative to adenosine (adenosine deaminase): hundredfold lower
- deamination by adenosine deaminase (adenosine deaminase): also deaminated by adenosine deaminase

Compound: Nc1ncnc2c1ncn2[C@@H]1C=C(CO)[C@@H](O)[C@H]1O [Neplanocin A, 9-[(1'R,2'S,3'R)-4-Hydroxymethyl-2',3'-dihydroxy-4-cyclopenten-1'-yl]adenine]
- toxicity to HL-60 cells (HL-60 cells [6]; 24 hrs. exposure, equimolar concentration, vs 3-deazaneplanocin): more toxic
- inhibition of AdoHcy-hydrolyzing enzyme (in words) [4]: potent inhibitor
- phosphorylation [3]: readily phosphorylated
- side effects [5]: multiplicity of side effects including cytotoxicity

Compound: Nc1ccn([C@@H]2C=C(CO)[C@@H](O)[C@H]2O)c(=O)n1 [CPE-C, 4-amino-1-[(1'R,2'S,3'R)-4'-hydroxymethyl-4'-cyclopenten-1'-yl]-2(1H)pyrimidinone]
- inhibition at 5 µg/mL [7, 16]: 73.2%
- inhibition at 25 µg/mL [7, 16]: 82.1%
- inhibition at 50 µg/mL [7, 16]: 94.6%
- inhibition at 5 µg/mL [8, 17]: 98.7%
- inhibition at 5 µg/mL [8, 18]: 98.6%
- inhibition at 25 µg/mL [8, 17]: 95.7%
- inhibition at 25 µg/mL [8, 18]: 99.5%
- inhibition at 50 µg/mL ([8]; 50 μg/ml, mink lung cells, second value of cell, read-out: % PFU Reduction, Herpes Simplex II (second value)): 100%
- antiviral activity (in words), Herpes Simplex Type II ([8]; non-cytotoxic concentrations): excellent activity
- inhibition at 50 µg/mL ([8]; read-out: % PFU Reduction, Herpes Simplex II (first value)): 97.4%
- inhibition at 5 µg/mL ([9]; Human mastadenovirus B, HEp-2, 5 μg/ml, Hep2 cells, read-out: % PFU Reduction, Adenovirus 7): 70%
- inhibition at 25 µg/mL ([9]; Human mastadenovirus B, HEp-2, 25 μg/ml, Hep2 cells, read-out: % PFU Reduction, Adenovirus 7): 80%
- inhibition at 50 µg/mL ([9]; Human mastadenovirus B, HEp-2, 50 μg/ml, Hep2 cells, read-out: % PFU Reduction, Adenovirus 7): 94%
- antiviral activity (in words), Adenovirus Type 7 ([9]; non-cytotoxic concentrations): excellent activity
- inhibition at 5 µg/mL [1]: 0%
- inhibition at 25 µg/mL [1]: 2.5%
- inhibition at 50 µg/mL [1]: 95%
- inhibition of cell growth (HL-60 cells [10]; continuous exposure for 5 days, 10^-8 to 10^-6 M): progressive inhibition of cell growth
- differentiation to a non-malignant phenotype (HL-60 cells [10]; continuous exposure for 5 days, 10^-8 to 10^-6 M, nitroblue tetrazolium reduction): differentiation to a non-malignant phenotype
- cell population that reduced nitroblue tetrazolium (HL-60 cells [10]; four days after exposure to 10^-7 M): 95 % of the cell population
- activity as cancer cell differentiating agent (in words) (HL-60 cells [10]; summary statement): potent cancer cell differentiating agent
- RNA synthesis ([11]; 10^-7 M, relative to DNA synthesis): inhibited to a lesser extent
- activity at 0.1 µM ([11]; Homo sapiens, HL-60, 24 hrs. after exposure to 10^-7 M): 10%
- c-myc mRNA levels (c-myc mRNA): inhibition of c-myc mRNA levels which was more pronounced than the reduction in total cellular RNA synthesis
- level of CTP (in words) ([12]; during CPE-C treatment): rapid and pronounced inhibition
- level of UTP, ATP or GTP ([12]; during CPE-C treatment): not of UTP, ATP or GTP
- CTP levels following drug removal ([12]; following drug removal): sustained reduction in CTP levels
- toxicity to cells used to support virus growth [2]: noncytotoxic

Compound: Nc1ncnc2c1nnn2[C@@H]1C=C(CO)[C@@H](O)[C@H]1O [Formula 8-Aza-CPE-A, 7-Amino-3-[(1'R,2'S,3'R)-4'-hydroxymethyl-2',3'-dihydroxy-4'-cyclopenten-1'-yl]-3H-1,2,3-triazolo[4,5-d]pyrimidine]
- pIC50 (L1210 tumor cells): 5.52

Compound: Nc1nccc2c1ncn2[C@@H]1C=C(CO)[C@@H](O)[C@H]1O [3-Deazaneplanocin A, 4-Amino-1-[(1'R,2'S,3'R)-4'-hydroxymethyl-2',3'-dihydroxy-4'-cyclopenten-1'-yl]imidazo[4,5-c]pyridine]
- toxicity (in words) (HL-60 cells [6]; summary statement, compared with neplanocin A): without the toxicity of neplanocin A
- change in cell viability (HL-60 cells [6]; two days of continuous exposure): Little or no change in cell viability
- inhibition at 5 µg/mL [13]: 14.2%
- inhibition at 25 µg/mL [13]: 95%
- inhibition at 50 µg/mL [13]: 98.9%
- inhibition at 5 µg/mL [7, 19]: 44.4%
- inhibition at 25 µg/mL [7, 19]: 77.7%
- inhibition at 50 µg/mL [7, 19]: 83.3%
- inhibition at 5 µg/mL [14]: 69.4%
- inhibition at 25 µg/mL [14]: 77.2%
- inhibition at 50 µg/mL [14]: 89.4%
- toxicity to cells used to support virus growth [2]: nontoxic
- pKi [15]: 10.30
- inhibition of AdoHyc hydrolase (in words) ([15]; summary statement): particularly potent inhibitor
- mode of inhibition ([15]; with adenosine): competitive inhibitor
